# Laboratory results reported in US9340600B2 (Indiana University Research and Technology Corporation, priority 2012, dated 2016).
# pEC50: −log10 of the molar value. *1 amine or outer side, *2 acyl side, *3 side chain or, on linkers, in order; H or OH if unused. Where a SMILES comes first, the peptide text is derived from it. Side-chain parts run from the residue outwards. [ ]: non-standard residue; d: D form. The star is where a group is joined. γGlu = O=C(O)[C@H](CCC(=O)[*:2])N[*:1]; Palmitoyl = CCCCCCCCCCCCCCCC(=O)*; Aib = CC(C)(N)C(=O)O
# Legend:
# Format in all cases: cell-based
# glucagon receptor = target: T1, glucagon receptor (Homo sapiens, UniProt P47871); experiment: cAMP induction, firefly luciferase-based reporter assay in HEK293 cells co-transfected with glucagon receptor; conditions: Table 3, analogs of SEQ ID NO: 18 varying at position 3; for pEC50: EC50 at Glucagon Receptor
# T1 construct: expressed in transfected cells; host or cells: HEK293
# Text: (§1) This example describes an exemplary method of testing the biological activity of the peptides of the present disclosures, which method involves assaying cAMP synthesis.
# GLP-1 receptor = target: T2, GLP-1 receptor (Homo sapiens, UniProt P43220); experiment: cAMP induction, firefly luciferase-based reporter assay in HEK293 cells co-transfected with GLP-1 receptor; conditions: EC50 at GLP-1 Receptor, Table 3, analogs of SEQ ID NO: 18 varying at position 3
# T2 construct: expressed in transfected cells; host or cells: HEK293
# Text: as §1
# GIP receptor = target: T3, GIP receptor (Homo sapiens, UniProt P48546); experiment: cAMP induction, firefly luciferase-based reporter assay in HEK293 cells co-transfected with GIP receptor; conditions: EC50 at GIP Receptor, Table 3, analogs of SEQ ID NO: 18 varying at position 3
# T3 construct: expressed in transfected cells; host or cells: HEK293
# T3 sequence (P48546 22-466): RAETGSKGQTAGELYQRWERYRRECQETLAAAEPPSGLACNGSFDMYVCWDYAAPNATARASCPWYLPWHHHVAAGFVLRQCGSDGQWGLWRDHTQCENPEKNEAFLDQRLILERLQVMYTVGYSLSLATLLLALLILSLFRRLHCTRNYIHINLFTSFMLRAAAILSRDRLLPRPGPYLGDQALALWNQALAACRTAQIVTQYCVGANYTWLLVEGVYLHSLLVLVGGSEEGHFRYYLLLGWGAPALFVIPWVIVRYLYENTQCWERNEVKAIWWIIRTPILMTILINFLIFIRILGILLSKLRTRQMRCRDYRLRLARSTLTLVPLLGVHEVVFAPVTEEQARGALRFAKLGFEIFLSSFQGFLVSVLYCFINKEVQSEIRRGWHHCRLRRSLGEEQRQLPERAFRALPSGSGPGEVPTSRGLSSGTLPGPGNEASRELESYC
# Text: as §1
# T2 sequence (P43220 24-463): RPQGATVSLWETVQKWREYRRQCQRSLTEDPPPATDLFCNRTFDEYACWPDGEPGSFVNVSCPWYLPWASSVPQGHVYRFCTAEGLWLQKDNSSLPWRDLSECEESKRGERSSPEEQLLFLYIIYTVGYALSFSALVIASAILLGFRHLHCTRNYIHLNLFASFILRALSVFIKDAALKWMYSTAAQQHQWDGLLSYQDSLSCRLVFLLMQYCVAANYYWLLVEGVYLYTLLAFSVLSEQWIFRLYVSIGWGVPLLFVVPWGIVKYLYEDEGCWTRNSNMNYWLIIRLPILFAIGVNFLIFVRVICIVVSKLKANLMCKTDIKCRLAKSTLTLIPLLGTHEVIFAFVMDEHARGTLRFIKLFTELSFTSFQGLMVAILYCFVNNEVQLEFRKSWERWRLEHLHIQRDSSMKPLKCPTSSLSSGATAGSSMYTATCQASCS
# T1 sequence (P47871 26-477): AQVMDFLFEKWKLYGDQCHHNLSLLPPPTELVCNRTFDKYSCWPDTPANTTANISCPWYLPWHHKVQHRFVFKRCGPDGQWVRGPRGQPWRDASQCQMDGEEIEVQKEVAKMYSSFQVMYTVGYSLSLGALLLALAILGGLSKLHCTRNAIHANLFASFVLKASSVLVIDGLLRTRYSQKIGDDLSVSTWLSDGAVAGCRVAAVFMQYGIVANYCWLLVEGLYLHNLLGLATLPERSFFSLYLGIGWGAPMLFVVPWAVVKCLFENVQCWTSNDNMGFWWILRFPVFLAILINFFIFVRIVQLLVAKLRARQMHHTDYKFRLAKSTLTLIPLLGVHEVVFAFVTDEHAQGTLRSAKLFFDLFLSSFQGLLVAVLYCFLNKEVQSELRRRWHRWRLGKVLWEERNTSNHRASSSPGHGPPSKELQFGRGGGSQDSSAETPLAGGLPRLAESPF
Compound,pEC50 (glucagon receptor),pEC50 (GLP-1 receptor),pEC50 (GIP receptor),EC50 at Glucagon Receptor (glucagon receptor)
CCCCCCCCCCCCCCCC(=O)N[C@@H](CCC(=O)NCCCC[C@H](NC(=O)[C@H](CC(=O)O)NC(=O)[C@H](CO)NC(=O)[C@@H](NC(=O)[C@H](Cc1ccccc1)NC(=O)[C@@H](NC(=O)CNC(=O)[C@H](CCC(=O)O)NC(=O)C(C)(C)NC(=O)[C@@H](N)Cc1c[nH]cn1)[C@@H](C)O)[C@@H](C)O)C(=O)N[C@@H](CO)C(=O)N[C@@H](CCCCN)C(=O)N[C@@H](Cc1ccc(O)cc1)C(=O)N[C@@H](CC(C)C)C(=O)N[C@@H](CCC(=O)O)C(=O)N[C@@H](CCC(=O)O)C(=O)N[C@@H](CCCNC(=N)N)C(=O)N[C@@H](C)C(=O)N[C@@H](C)C(=O)N[C@@H](CCC(N)=O)C(=O)N[C@@H](CCC(=O)O)C(=O)N[C@@H](Cc1ccccc1)C(=O)N[C@H](C(=O)N[C@@H](CCC(N)=O)C(=O)N[C@@H](Cc1c[nH]c2ccccc12)C(=O)N[C@@H](CC(C)C)C(=O)N[C@@H](CC(C)C)C(=O)N[C@@H](CCC(=O)O)C(=O)NCC(=O)NCC(=O)N1CCC[C@H]1C(=O)N[C@@H](CO)C(=O)N[C@@H](CO)C(=O)NCC(=O)N[C@@H](C)C(=O)N1CCC[C@H]1C(=O)N1CCC[C@H]1C(=O)N1CCC[C@H]1C(=O)N[C@@H](CO)C(N)=O)C(C)C)C(=O)O [compound 29] (H-H[Aib]EGTFTSDK([γGlu-Palmitoyl])SKYLEERAAQEFVQWLLEGGPSSGAPPPS-NH2; N-terminus assumed),8.82,11.10,10.77,
CCCCCCCCCCCCCCCC(=O)N[C@@H](CCC(=O)NCCCC[C@H](NC(=O)[C@H](CC(=O)O)NC(=O)[C@H](CO)NC(=O)[C@@H](NC(=O)[C@H](Cc1ccccc1)NC(=O)[C@@H](NC(=O)CNC(=O)[C@@H](NC(=O)C(C)(C)NC(=O)[C@@H](N)Cc1c[nH]cn1)[C@@H](C)CC)[C@@H](C)O)[C@@H](C)O)C(=O)N[C@@H](CO)C(=O)N[C@@H](CCCCN)C(=O)N[C@@H](Cc1ccc(O)cc1)C(=O)N[C@@H](CC(C)C)C(=O)N[C@@H](CCC(=O)O)C(=O)N[C@@H](CCC(=O)O)C(=O)N[C@@H](CCCNC(=N)N)C(=O)N[C@@H](C)C(=O)N[C@@H](C)C(=O)N[C@@H](CCC(N)=O)C(=O)N[C@@H](CCC(=O)O)C(=O)N[C@@H](Cc1ccccc1)C(=O)N[C@H](C(=O)N[C@@H](CCC(N)=O)C(=O)N[C@@H](Cc1c[nH]c2ccccc12)C(=O)N[C@@H](CC(C)C)C(=O)N[C@@H](CC(C)C)C(=O)N[C@@H](CCC(=O)O)C(=O)NCC(=O)NCC(=O)N1CCC[C@H]1C(=O)N[C@@H](CO)C(=O)N[C@@H](CO)C(=O)NCC(=O)N[C@@H](C)C(=O)N1CCC[C@H]1C(=O)N1CCC[C@H]1C(=O)N1CCC[C@H]1C(=O)N[C@@H](CO)C(N)=O)C(C)C)C(=O)O [compound 30] (H-H[Aib]IGTFTSDK([γGlu-Palmitoyl])SKYLEERAAQEFVQWLLEGGPSSGAPPPS-NH2),,9.60,9.37,Not active
CCCCCCCCCCCCCCCC(=O)N[C@@H](CCC(=O)NCCCC[C@H](NC(=O)[C@H](CC(=O)O)NC(=O)[C@H](CO)NC(=O)[C@@H](NC(=O)[C@H](Cc1ccccc1)NC(=O)[C@@H](NC(=O)CNC(=O)[C@H](CCSC)NC(=O)C(C)(C)NC(=O)[C@@H](N)Cc1c[nH]cn1)[C@@H](C)O)[C@@H](C)O)C(=O)N[C@@H](CO)C(=O)N[C@@H](CCCCN)C(=O)N[C@@H](Cc1ccc(O)cc1)C(=O)N[C@@H](CC(C)C)C(=O)N[C@@H](CCC(=O)O)C(=O)N[C@@H](CCC(=O)O)C(=O)N[C@@H](CCCNC(=N)N)C(=O)N[C@@H](C)C(=O)N[C@@H](C)C(=O)N[C@@H](CCC(N)=O)C(=O)N[C@@H](CCC(=O)O)C(=O)N[C@@H](Cc1ccccc1)C(=O)N[C@H](C(=O)N[C@@H](CCC(N)=O)C(=O)N[C@@H](Cc1c[nH]c2ccccc12)C(=O)N[C@@H](CC(C)C)C(=O)N[C@@H](CC(C)C)C(=O)N[C@@H](CCC(=O)O)C(=O)NCC(=O)NCC(=O)N1CCC[C@H]1C(=O)N[C@@H](CO)C(=O)N[C@@H](CO)C(=O)NCC(=O)N[C@@H](C)C(=O)N1CCC[C@H]1C(=O)N1CCC[C@H]1C(=O)N1CCC[C@H]1C(=O)N[C@@H](CO)C(N)=O)C(C)C)C(=O)O [compound 31] (H-H[Aib]MGTFTSDK([γGlu-Palmitoyl])SKYLEERAAQEFVQWLLEGGPSSGAPPPS-NH2; N-terminus assumed),10.52,11.70,11.30,
